Where no end group is shown, it is not given here. [ ]: non-standard residue; d: D form. Pro(cis-4-F) = O=C(O)[C@@H]1C[C@H](F)CN1; Hyp = O=C(O)[C@@H]1C[C@@H](O)CN1
Tests used:
[1] = test system: TNFα secretion, Raw 264.7 cells; assay: Anti-inflammatory efficacy: TNFα ELISA in LPS-stimulated Raw 264.7 macrophages; format: cell-based, mouse; details: for TNFα level increased by LPS: 1 h pretreatment, LPS 1 μg/ml 24 h; for anti-inflammatory activity by regulating the secretion of TNFα: summary, concentration not given
Procedure: (§1) An anti-inflammatory efficacy was evaluated for representative examples of the above examples. Specifically, in order to confirm whether Examples 10, 32, 41, 55, 59 and 91, which are representative examples of 5 amino acid residues, Examples 11 and 30, which are representative examples of 6 amino acid residues, Example 86, which is a representative example of 7 amino acid residues, and Examples 103 and 104, which are representative examples of 8 amino acid residues, have an anti-inflammatory effect, a change in the secretion amount of inflammatory cytokines was confirmed by enzyme-linked immunosorbent assay (ELISA) using Raw 264.7 cells, which are macrophage (monocyte) cell lines.
(§2) Specifically, the Examples were diluted in Raw264.7 cells (Korean Cell Line Bank, 40071) at a concentration of 10 nM, 100 nM, 1 μM, and 10 μM, respectively, and pretreated for 1 hour, and then LPS (Sigma, L6529) at a concentration of 1 μg/ml was added to induce an inflammatory response. After 24 hours of induction, the cell culture supernatant was collected and analyzed. Enzyme-linked immunosorbent assay was performed using Mouse IL-6 Quantikine ELISA Kit (R&D systems, M6000B), TNF-alpha Quantikine ELISA Kit (R&D systems, MTA00B), Mouse IL-1 beta/IL-1F2 Quantikine ELISA Kit (R&D systems, MLB00C) in accordance with the manufacturer's manual.

[2] = test system: IL-1β secretion, Raw 264.7 cells; assay: Anti-inflammatory efficacy: IL-1β ELISA in LPS-stimulated Raw 264.7 macrophages; format: cell-based, mouse; details: for IL-1β level increased by LPS: 1 h pretreatment, LPS 1 μg/ml 24 h; for anti-inflammatory effect by regulating the secretion of IL-1β: summary, concentration not given
Procedure: as §1, §2

[3] = Evaluation of dissolution stability (content change on storage in dissolved state); format: physicochemical; details: 1 mg/1 ml dissolved state, 40° C. and RH 75%
[4] = test system: IL-6 secretion, Raw 264.7 cells; assay: Anti-inflammatory efficacy: IL-6 ELISA in LPS-stimulated Raw 264.7 macrophages; format: cell-based, mouse; details: for anti-inflammatory activity by regulating the secretion of IL-6: summary, concentration not given; for IL-6 level increased by LPS: 1 h pretreatment, LPS 1 μg/ml 24 h
Procedure: as §1, §2

Row | Substance | TNFα level increased by LPS ([1]; 10 nM peptide) | TNFα level increased by LPS ([1]; 1 μM peptide) | anti-inflammatory activity by regulating the secretion of TNFα [1] | IL-1β level increased by LPS ([2]; 100 nM peptide) | IL-1β level increased by LPS ([2]; 1 μM peptide) | anti-inflammatory effect by regulating the secretion of IL-1β [2] | Day 3 content (%) [3] [%] | Day 7 content (%) [3] [%] | Initial content (%) [3] [%] | TNFα level increased by LPS ([1]; 10 μM peptide) | Day 1 content (%) [3] [%] | IL-1β level increased by LPS ([2]; 10 nM peptide) | anti-inflammatory activity by regulating the secretion of IL-6 [4] | IL-1β level increased by LPS ([2]; 10 μM peptide) | IL-6 level increased by LPS ([4]; 1 μM peptide) | IL-6 level increased by LPS ([4]; 10 nM peptide)
1 | Hyp-Gly-Gln-Asp-Gly ([Hyp]GQDG) [Example 10] | significantly reduced | significantly reduced | significant anti-inflammatory activity | significantly reduced | significantly reduced | significant anti-inflammatory effect | 86.65 | 78.68 | 98.76 |  |  |  |  |  |  | 
2 | Hyp-Gly-Gln-Asp-Gly-Leu ([Hyp]GQDGL) [Example 11] |  |  | significant anti-inflammatory activity |  |  |  | 81.21 | 64.19 | 98.96 | significantly reduced | 91.37 |  |  |  |  | 
3 | Hyp-Gly-Gln-Asp-Leu ([Hyp]GQDL) [Example 32] |  |  |  | significantly reduced | significantly reduced | significant anti-inflammatory effect | 93.57 | 90.50 | 98.05 |  | 96.81 | significantly reduced | significant anti-inflammatory activity |  |  | 
4 | Hyp-Gly-Gln-D Asp-Gly ([Hyp]GQ[dD]G) [Example 59] |  |  | significant anti-inflammatory activity | significantly reduced |  | significant anti-inflammatory effect | 98.76 | 98.75 | 98.78 |  | 98.78 |  |  |  |  | 
5 | Hyp-Gly-Gln-Glu-Val ([Hyp]GQEV) [Example 91] |  |  |  | reduced | reduced | significant anti-inflammatory effect | 98.74 | 98.68 | 99.08 |  | 99.10 | reduced | significant anti-inflammatory activity | reduced | significantly reduced | 
6 | QDGLAG [Example 30] |  |  |  |  |  |  | 94.27 | 91.57 | 96.44 |  | 95.61 |  | significant anti-inflammatory activity |  |  | significantly reduced
7 | cis-4F-Pro-Gly-Gln-Asp-Gly ([Pro(cis-4-F)]GQDG) [Example 41] |  |  |  | significantly reduced |  | significant anti-inflammatory effect | 91.07 | 85.34 | 96.95 |  | 93.20 |  | significant anti-inflammatory activity |  | significantly reduced | 

From US12428446B2, “Peptide compound or pharmaceutically acceptable salt thereof” (Eyebio Korea, priority 2019, dated 2025)
